Reference: ChEMBL document CHEMBL1124017, “Synthesis, absolute configuration, and molecular modeling study of etoxadrol, a potent phencyclidine-like agonist” (J Med Chem, 1988)

Key:
[1] = target: Glutamate NMDA receptor; test: Displacement of [3H]TCP from tissue homogenate preparation of whole rat brain minus cerebellum; format: tissue-based
[2] = organism: Rattus norvegicus; test: Behavioral potency by which rat discriminate phencyclidine from saline in a 2 lever drug discrimination procedure; format: functional

SMILES | Ki [1] [µM] | ED50 [2] [µM]
CC[C@@]1(c2ccccc2)OC[C@H]([C@H]2CCCCN2)O1.CC[C@]1(c2ccccc2)OC[C@H]([C@H]2CCCCN2)O1 | 38 | >100
CC[C@@]1(c2ccccc2)OC[C@@H]([C@@H]2CCCCN2)O1.CC[C@]1(c2ccccc2)OC[C@@H]([C@@H]2CCCCN2)O1 | 40 | >100
CC[C@@]1(c2ccccc2)OC[C@H]([C@@H]2CCCCN2)O1 | 3.7 | 
CC[C@@]1(c2ccccc2)OC[C@@H]([C@H]2CCCCN2)O1 | 2.3 | >100
CC[C@]1(c2ccccc2)OC[C@H]([C@@H]2CCCCN2)O1 [ETOXADROL] | 0.107 | 2.4
